Measured values published in PMC8219695 (Nature Communications, 2021).
Values joined by “and” are separate entries in the source; they are usually repeats but may differ in a detail not shown here. Equal entries are not always repeated.

How the values were obtained:
hKOR = hKOR (Homo sapiens, UniProt P41145); assay: CAMYEL BRET cAMP agonist assay at hKOR; type: cell-based; details: individual replicates, Supplementary Figure 8A source data
mMOR [1] = molecular target: T1, mMOR (Mus musculus, UniProt P42866); assay: CAMYEL BRET cAMP agonist assay at mMOR; type: cell-based; details: mMOR; for cAMP %: single replicates, source data Fig 6b, listed as C11-Br-7OH (24)
T1 construct: signal peptide (heterologous, not specified) (N); expressed in transfected cells; pcDNA3.1(+) construct made in house

mKOR = molecular target: T2, mKOR (Mus musculus, UniProt P33534); assay: [125I]BNtxA radioligand competition binding, mouse KOR; details: mean ± SEM, n = 3; [125I]BNtxA; read-out: Ki ± SEM mKOR
T2 construct: expressed in transfected cells; membranes

hMOR [2] = molecular target: T3, hMOR (Homo sapiens, UniProt P35372); assay: CAMYEL BRET cAMP agonist assay at hMOR; type: cell-based; details: for cAMP %: hMOR, single replicates, source data Fig 6c, listed as C11-Br-7OH (24)
T3 construct: expressed in transfected cells; plasmid a gift from Dr. Nevin Lambert

mMOR [3] = molecular target: T1, mMOR; assay: [125I]BNtxA radioligand competition binding, mouse MOR; details: mean ± SEM, n = 3; [125I]BNtxA; read-out: Ki ± SEM mMOR
hMOR [4] = molecular target: T3, hMOR; assay: cell-based
hDOR = hDOR (Homo sapiens, UniProt P41143); assay: CAMYEL BRET cAMP agonist assay at hDOR; type: cell-based; details: single replicate values, Supplementary Figure 7A
[5] = Log[drug] (M) -13, cAMP inhibition as % of DAMGO

CC[C@@H]1CN2CC[C@@]3(O)C(=Nc4cc(Br)cc(OC)c43)[C@@H]2C[C@@H]1/C(=C\OC)C(=O)OC [11-Br-7OH (24), 11-Br-7OH]
Agonist activity of 7OH analogs at hKOR (hKOR; Log [drug](M) -5): 10.9149 and -7.215 and 4.286 and 11.8421 and 11.499 and 10.9733 and -4.579 and 2.634 and 3.416 | Agonist activity of 7OH analogs at hKOR (hKOR; Log [drug](M) -6): 3.035 and -0.7724 and -13.4731 and 3.219 and -0.695 and 8.186 and -5.571 and -3.171 and 0.4347 | Agonist activity of 7OH analogs at hKOR (hKOR; Log [drug](M) -7): -0.1722 and -16.4342 and -16.1746 and -2.26 and -3.79 and -3.25 and 0.1411 and 2.3 and 5.19 | Agonist activity of 7OH analogs at hKOR (hKOR; Log [drug](M) -8): 22.3379 and -4.57 and 1.209 and 8.576 and -8.308 and -4.317 and 11.4126 and 9.041 and 4.453 | Agonist activity of 7OH analogs at hKOR (hKOR; Log [drug](M) -9): 2.393 and 14.1276 and 3.431 and 19.0489 and 8.55 and -5.559 and -3.604 and -6.454 and -4.21 | Agonist activity of 7OH analogs at hKOR (hKOR; Log [drug](M) -10): -9.31 and -5.502 and 19.956 and 11.266 and -0.5812 and -7.816 and -4.981 and -0.9266 and -11.4459 | Agonist activity of 7OH analogs at hKOR (hKOR; Log [drug](M) -11): 21.966 and -9.511 and 21.9409 and -12.3295 and 2.605 and 7.521 and 2.85 and -2.233 and 3.089 | Agonist activity of 7OH analogs at hKOR (hKOR; Log [drug](M) -13): -3.621 and -4.92 and 8.541 and 7.349 and -4.448 and -2.901 and 2.036 and -3.052 and 1.015 | cAMP % (mMOR [1]; Log[drug] (M) -5): 9.013% and 6.73% and 3.065% and 5.631% and 1.057% and 0.04315% and 7.004% and 14.1806% and 4.634% | cAMP % (mMOR [1]; Log[drug] (M) -6): 5.8044% and 1.851% and 7.958% and 11.2571% and 3.589% and -1.762% and 6.0175% and 2.324% and 0.676% | cAMP % (mMOR [1]; Log[drug] (M) -7): -3.894% and -5.88% and 9.775% and 0.4502% and 1.258% and -1.708% and 1.616% and 1.4183% and 0.1827% | cAMP % (mMOR [1]; Log[drug] (M) -8): 1.549% and 0.05958% and 0.01199% and -1.248% and 2.618% and 1.046% and 3.634% and 0.478% and 3.5882% | cAMP % (mMOR [1]; Log[drug] (M) -9): 13.8914% and 20.7075% and 0.6937% and 7.1213% and -0.7937% and 5.232% and 4.985% and -2.644% and 5.425% | cAMP % (mMOR [1]; Log[drug] (M) -10): 10.1801% and 15.9014% and 8.011% and 8.742% and 7.948% and 6.092% and 2.318% and -3.2024% and 3.127% | cAMP % (mMOR [1]; Log[drug] (M) -11): 14.2135% and 8.364% and 1.552% and 8.664% and 7.808% and 10.8013% and 0.4413% and -1.089% and 0.6474% | cAMP % (mMOR [1]; [5]): 6.348% and 21.1377% and 5.87% and 7.068% and 6.954% and 15.1455% and 5.75% and 5.389% and 3.7452% | Emax (mMOR [1]; maximal inhibitory effect on cAMP levels relative to DAMGO): < 10% | Ki (mKOR): 81.1 ± 7.1 nM | EC50 (hMOR [2]): 401 nM | Emax (hMOR [2]): 14% | cAMP % (hMOR [2]; Log[drug] (M) -5): 14.6374% and 26.5598% and 13.4593% and 12.3793% and 6.1202% and 3.5813% and 27.8092% and 3.652% and 6.737% | cAMP % (hMOR [2]; Log[drug] (M) -6): 18.6989% and 7.716% and 19.1803% and 0.2165% and 6.6608% and -0.2253% and 39.9126% and 18.2077% and 19.9668% | cAMP % (hMOR [2]; Log[drug] (M) -7): 12.0186% and 17.6725% and 14.4534% and 3.531% and 0.1326% and -1.3668% and -1.063% and 7.0578% and -1.6001% | cAMP % (hMOR [2]; Log[drug] (M) -8): 3.165% and 4.1647% and 7.3741% and 8.619% and 14.9301% and 11.6764% and -5.609% and -5.366% and 10.9759% | cAMP % (hMOR [2]; Log[drug] (M) -9): 2.317% and -1.298% and -1.019% and -2.259% and -7.165% and 10.2432% and 25.8292% and 21.9013% and 22.3959% | cAMP % (hMOR [2]; Log[drug] (M) -10): 4.34% and -1.394% and 4.504% and 1.432% and 0.8602% and -2.292% and 0.6443% and 11.4211% and 26.9944% | cAMP % (hMOR [2]; Log[drug] (M) -11): 6.752% and 9.529% and 9.016% and 11.4512% and -5.469% and 12.8282% and 13.3991% and 6.363% and 12.7423% | cAMP % (hMOR [2]; [5]): 4.239% and 4.052% and 15.2175% and 4.859% and 6.721% and 16.8511% and 4.407% and 8.458% and 8.078% | Ki (mMOR [3]): 32.4 ± 1.4 nM | IC50 (hMOR [4]): 1970 nM | Agonist activity of 7OH analogs at hDOR (hDOR; Log[drug] (M) -5): 4.7 and 25.3039 and 6.573 and 24.0158 and 10.0458 and 10.1909 and 12.9945 and 10.3075 | Agonist activity of 7OH analogs at hDOR (hDOR; Log[drug] (M) -6): 13.1842 and 10.2252 and 8.595 and 5.73 and 12.7267 and 14.3479 and 6.336 and 13.8749
